In PubChem BioAssay (NCI) one finds TGI and GI50 data, which are given here for 13 compounds.

Molecules are shown by their SMILES. Values joined by “and” are separate entries in the source; they are usually repeats but may differ in a detail not shown here. Identical values can stand only once.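 Step 1: Grow cells in 96-well plates. Step 2: Expose to compound for 48 hours at 5 concentrations. Step 3: Interpolate endpoints linearly; if unreached, use highest concentration. At the GI50, growth is halved. TGI: total growth inhibition.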

Common to all, as to experiment: growth of human tumour cells (NCI), 48 h
For assay [1], the system named is HOP-92 NSCLC.
Assay [2] deals with SK-MEL-28 melanoma.
The test system of assay [3] is MDA-MB-435.
Assay [4] has as its system ACHN renal.
For assay [5], the system named is HS 578T breast.
For assay [6], the system named is NCI/ADR-RES ovarian.
In assay [7] the test system is SF-268 CNS.
Assay [8] deals with IGROV1 ovarian.
For assay [9], the system named is HCC-2998 colon.
Assay [10] has as its system OVCAR-4 ovarian.
Assay [11] relates to EKVX NSCLC.
In assay [12] the test system is A498 renal.

For the compound `C=C1CN(C2=NCCO2)C1`, the TGI in assay [1], in assay [2], in assay [3], in assay [4], in [5] and in [6] was above 100 µM throughout. Moreover, the TGI in assay [7], in assay [8], in assay [9], in assay [10] and in assay [11] was above 100 µM in each case.
On to `CC(C)(C)OC(=O)NCC(=O)N1CCN(C(=O)CNC(=O)OC(C)(C)C)CC1`, for which the TGI in [1], in assay [2], in assay [3], in assay [4], in assay [6] and in assay [12] was above 100 µM in each case. Also, the TGI is 39.7 µM in [7]; above 100 µM in assay [8]; above 100 µM in assay [9]; above 100 µM in assay [10]; above 100 µM in assay [11].
Consider `C/C=C(/C)C(=O)O[C@H]1[C@H](O)CC(c2ccc3c(c2O)C(O)=C2C(=O)C4(OC)C(O)=C(C(N)=O)C(=O)[C@H](CC(=O)c5ccccc5O)C4CC2[C@@]3(C)OC)O[C@@H]1C` (stereo not given in full), for which the TGI is 0.625 µM in assay [1]; 2.56 µM and 2.45 µM in assay [2]; 1.64 µM in assay [3]; 3.96 µM in [4]; 2.21 µM and 1.49 µM in [12]; 2.91 µM in [7]. Also, the TGI in assay [8] is 2.48 µM and 0.341 µM; in [9] it was 1.25 µM and 1.05 µM; in [10], 17 µM; in [11], 0.518 µM. Moreover, the GI50 in [2] was 1.06 µM; in assay [12], 0.0198 µM.
Turning to `Cc1ccc([N+](=O)[O-])c2c(NCC(O)CO)ccnc12` (stereo not given), the TGI in assay [1], in [2], in assay [3], in assay [4], in [5] and in [6] was above 100 µM in each case. The TGI in assay [7], in [8], in assay [9], in assay [10] and in assay [11] was above 100 µM in each case.
With `NC1CC=C(COC(=O)C(O)(c2ccccc2)C2CC2)CC1` (stereo not given), the TGI in [2], in assay [4], in [6], in [7], in [8] and in assay [9] was above 100 µM each time. In assay [11], this compound had a TGI above 100 µM.
With `CC(=O)Nc1ccccc1NC1CC(C)N(c2ccccc2)N1C(C)=O` (stereo not given), the TGI in [1], in assay [2], in assay [3], in assay [7], in assay [8] and in assay [9] was above 10 µM each time. Besides, the TGI in assay [10] and in [11] was above 10 µM throughout.
As to `COc1cc(Br)c(CC2C3=C(CCN2C(=O)C2CCC2)CC(=O)CC3)cc1O` (stereo not given), the TGI in assay [1] is 53.6 µM; in [2] it was above 100 µM; in [3] it was 35.7 µM; in [4], 86.9 µM; in assay [5], 85.5 µM; in [6], above 100 µM. Besides, the TGI in assay [7] was above 100 µM; in assay [8] it was above 100 µM; in [9], 92.9 µM; in [11], above 100 µM.
As for `O=C(CSc1nc2ccccc2c(=O)n1-c1ccccc1)N=Nc1c(O)[nH]c2ccc(F)cc12`, the TGI is 4.17 µM in assay [1]; 4.54 µM in assay [2]; above 100 µM in assay [3]; above 100 µM in assay [5]; 5.48 µM in [6]; 4.93 µM in assay [7]. Moreover, the TGI was 4.75 µM in assay [9], 4.34 µM in assay [10] and 5.57 µM in assay [11].
`O=c1c2ccccc2nc(N/N=C/c2ccccc2O)n1-c1ccccc1`: the TGI was 81.3 µM in assay [1]; above 100 µM in [2]; above 100 µM in assay [3]; above 100 µM in assay [4]; 39.5 µM in assay [5]; 7.71 µM in [6]. The TGI in assay [12] was above 100 µM; in assay [7], above 100 µM; in [8], above 100 µM; in assay [9], above 100 µM; in assay [10], 43.2 µM.
Consider `Brc1ccc2c(-c3csc(-c4c[nH]c5ccccc45)n3)c[nH]c2c1`, for which the TGI in assay [1] came to 33.3 µM; in assay [2], 31 µM; in assay [3], 32.9 µM; in assay [4], 32.1 µM; in [6] it was 35.9 µM; in assay [12], 32.2 µM. For the same compound, the TGI in assay [7] was 34.5 µM; in [8], 26.6 µM; in assay [9], 30.9 µM; in assay [10], 39.8 µM; in assay [11] it was 36.1 µM.
In the case of `CCCC(=O)[O-].N.N.N.N.N.[Co+3].[O-][Cl+3]([O-])([O-])[O-]`, the TGI in assay [1], in [2], in assay [4], in [12], in assay [7] and in [8] was above 100 µM in each case. Also, the TGI in assay [9], in assay [10] and in assay [11] was above 100 µM each time.
On to `CC(=O)N/C(=C\c1ccc(Cc2nc3c([nH]2)C(=O)c2ccccc2C3=O)cc1)c1nc2c([nH]1)C(=O)c1ccccc1C2=O`, for which the TGI in assay [1], in assay [2], in [4], in assay [12], in [7] and in assay [8] was above 100 µM each time. Also, the TGI in assay [9], in [10] and in assay [11] was above 100 µM throughout.
Turning to `CCOC(=O)C(NC(=O)OC(C)(C)C)C(=O)OCC`, the TGI in [1], in [2], in assay [3], in assay [4], in assay [5] and in assay [6] was above 100 µM throughout. Besides, the TGI in assay [7], in assay [8], in assay [9], in [10] and in assay [11] was above 100 µM each time.
